Source: patent US20260217763A1, “Novel Peptide and Use Thereof” (Zincure Corp., priority 2022, published 2026)
Square brackets hold non-standard residues; d marks the D form. Ends that are not written are not given here. Peptide text beside a SMILES is read from it.

Legend:
[1] = In vitro plasma stability assay; type: in vitro ADME, ICR mice; details: 10 μM peptide, 37° C.; for stability in plasma over time: mouse plasma, 0 to 90 min, LC-MS
Protocol: FIG. 1 is a graph showing the results of measuring quantitative changes of alloferon L-type and alloferon D-type peptides by mass spectrometry to investigate their degradation in plasma from mice, where 10 µM of each alloferon peptide was treated in isolated plasma and were incubated at 37° C. for 0, 10, 30, 60, and 90 min.
As the present inventors believed that the mechanism of action of alloferon peptides is through endocytosis via multi-ligand receptors rather than physiological activity and that zinc-binding capacity is an important mechanism, they investigated the blood stability of the D-type alloferon of Example 1-2 in which all amino acids except glycine have been replaced with D-type amino acids and the L-type alloferon of Example 1-1. An in vitro plasma stability assay was performed to compare the stability of the L-type peptide and the D-type peptide of alloferon in the plasma of mice. For this purpose, 500 to 600 μl of blood was obtained from ICR mice by orbital blood sampling, which was subsequently centrifuged at 2000×g for 20 min at 4° C. using a centrifuge, and the supernatant was collected to obtain plasma. After adding 10 μM of the alloferon L-type and D-type peptides to 100 μl of the plasma, the plasma was incubated at 37° C. for 0, 5, 10, 30, 60, and 90 min. Then, 500 μl of cold methanol was added to precipitate the protein, and the protein was lyophilized and subjected to liquid chromatography and protein mass spectrometry.

[2] = tested on: GFP-mHttQ74 aggregates in HEK293T cell line; test: Mutant huntingtin protein aggregates after overexpression, Western blot; type: cell-based; details: peptide 30 μM with 100 nM bafilomycin A1, 18 h, HEK293T; FIG. 6
Protocol: (§1) FIG. 6 is a result of Western blot analysis of the level of mutant huntingtin protein expression in protein samples obtained 18 h after treatment of HEK293T cells transfected to express mutant huntingtin protein with 100 nM bafilomycin A1 alone or in combination with 30 μM of some variant alloferon peptides according to one embodiment of the present invention, for investigating the degradation of mutant huntingtin protein aggregates by treatment with some variant alloferon peptides (DALS1, DAL-VS_V(−Q), DAL1, and DALV2) according to one embodiment of the present invention.
(§2) The present inventors then investigated whether some of the variant peptides (DALS1, DALVS_V, DAL1, DALV2) comprising the amino acid sequences designated as SEQ ID NO: 3 through 16 could resolve SOD1 aggregates that formed after transient transfection of SOD1 protein into the 293T cell line. To this end, EGFP-SOD1 G93A DNA was transiently transfected into the HEK293T cell line using Lipofectamine 2000. After transfection, the cell lines were incubated in a cell culture machine at 37° C. and 5% CO2 for 30 h, and the culture medium was replaced with Minimum Essential Medium (MEM, Gibco, USA). Subsequently, the cells were pretreated with 100 nM bafilomycin for 30 min, which were then treated with μM variant alloferon peptide and incubated for 18 h. […] Then, it was subjected to protein quantification using BCA protein assay kit (Pierce Biotechnology, USA), and centrifuged at 17,000×g for 20 min, where the supernant was discarded and only the cell debris was taken to obtain protein. Subsequently, 5× sample buffer (300 mM Tris, pH 6.8, 10% SDS, 50% Glycerol, 0.1% BPB, 2.5% Mercaptoethanol, 100 mM DTT) was mixed with the quantified sample, denatured at 95° C. for 5 min, and prepared for analysis. […] Protein signals were detected using enhanced chemiluminescence (INTRON Biotechnology, South Korea) and a bio-imaging system (MF-Chemibis, Shimadzu Scientific Korea Corporation, South Korea). […]

[3] = tested on: EGFP-α-synuclein A53T aggregates in HEK293T cell line; test: α-synuclein protein aggregates after overexpression, Western blot; type: cell-based; details: peptide with 100 nM bafilomycin A1, 18 h, HEK293T; FIG. 5
Protocol: FIG. 5 is a result of Western blot analysis of the level of α-synuclein protein expression in protein samples obtained 18 h after treatment of HEK293T cells transfected to express α-synuclein with 100 nM bafilomycin A1 alone or in combination with 30 µM of some variant alloferon peptides according to one embodiment of the present invention, for investigating the degradation of α-synuclein protein aggregates by treatment with some variant alloferon peptides (DALS1, DAL-VS_V(−Q), DAL1, and DALV2) according to one embodiment of the present invention.
as §2

[4] = tested on: EGFP-SOD1 G93A aggregates in HEK293T cell line; test: SOD1 protein aggregates after SOD1 overexpression, Western blot; type: cell-based; details: peptide with 100 nM bafilomycin, 18 h, HEK293T; FIG. 3B
Protocol: as §1, with “FIG. 3A” for “FIG. 6”, “of SOD1” for “of mutant huntingtin”, “express SOD1” for “express mutant huntingtin protein”, “invention. FIG. 3B is a graph representing the results of quantifying relative expression of the SOD1 protein. In FIG. 3B, * indicates a significant difference compared to the treatment with bafilomycin alone (* p<0.05).” for “invention.”
The present inventors then investigated whether some of the variant peptides (DALS1, DALVS_V, DAL1, DALV2) comprising the amino acid sequences designated as SEQ ID NO: 3 through 16 could resolve SOD1 aggregates that formed after transient transfection of SOD1 protein into the 293T cell line. To this end, EGFP-SOD1 G93A DNA was transiently transfected into the HEK293T cell line using Lipofectamine 2000. After transfection, the cell lines were incubated in a cell culture machine at 37° C. and 5% CO2 for 30 h, and the culture medium was replaced with Minimum Essential Medium (MEM, Gibco, USA). Subsequently, the cells were pretreated with 100 nM bafilomycin for 30 min, which were then treated with μM variant alloferon peptide and incubated for 18 h. After that, proteinase inhibitors and phosphatase inhibitors (2 μg/ml aprotinin, 2 μg/ml leupeptin, 1 μg/ml pepstatin A, 1 mM phenyl-methylsulfonyl fluoride (PMSF), 1 mM Na3 VO4, 5 mM NaF and 10 mM Na4P2O7) were put into a 6-well culture dish at 200 μl per well to lyse the cells. The obtained cell lysate was first left at 30 min for 4° C. Then, it was subjected to protein quantification using BCA protein assay kit (Pierce Biotechnology, USA), and centrifuged at 17,000×g for 20 min, where the supernant was discarded and only the cell debris was taken to obtain protein. Subsequently, 5× sample buffer (300 mM Tris, pH 6.8, 10% SDS, 50% Glycerol, 0.1% BPB, 2.5% Mercaptoethanol, 100 mM DTT) was mixed with the quantified sample, denatured at 95° C. for 5 min, and prepared for analysis. Then, electrophoresis was performed using 8% to 15% SDS-polyacrylamide gel, and the proteins separated by their sizes were transferred to polyvinylidene difluoride (PVDF) membranes (Millipore, USA). The protein-transferred membranes were then blocked with 3% skim milk powder in TBST for 1 h. […] Protein signals were detected using enhanced chemiluminescence (INTRON Biotechnology, South Korea) and a bio-imaging system (MF-Chemibis, Shimadzu Scientific Korea Corporation, South Korea).

[5] = tested on: H4 cell lines (GL-H4) expressing GFP-linked LC3; test: Analysis of autophagic flow blocked by bafilomycin A-1 (LC3-GFP spots); type: cell-based; details: peptide 20 μM with Baf A1 100 nM, GL-H4 cells; FIGS. 2E and 2F
Protocol: FIGS. 2A to 2C are series of fluorescence micrographs of LC3-GFP spots 12 h after treating H4 cell line (GL-H4) that stably overexpresses GFP-LC3 protein with various variant alloferon peptides according to one embodiment of the present invention in combination with bafilomycin at a concentration of 20 μM, showing that autophagic flux blocked by bafilomycin A-1 is restored by the variant alloferon peptides according to one embodiment of the present invention. FIGS. 2D to 2F are graphs showing quantification of the fluorescence intensity of LC3-GFP spots 12 h after treatment of the GL-H4 cell line with the variant alloferon peptides according to one embodiment of the present invention in combination with bafilomycin at a concentration of 20 μM.
H4 cell line (GL-H4) and HEK293T cell line permanently transfected with GFP-LC3 plasmid were used in the present invention. The cell culture medium was Minimum Essential Medium (MEM, WellGene) supplemented with 10% fetal bovine serum (Hyclone, USA) and antibiotic and antifungal mixture (WellGene, Korea) and cultured in a cell culture machine at 37° C. and 5% CO2.
To investigate the effect of peptides comprising the amino acid sequences designated as SEQ ID NO: 3 to 16 on autophagic flow, the present inventors treated H4 cell lines (GL-H4) expressing GFP-linked LC3 with the peptides (20 μM) and/or the autophagic inhibitor Bafilomycin A-1 (Baf A1, 100 nM) to inhibit autophagy, and then the effect of the variant alloferon peptides according to one embodiment of the present invention was investigated by fluorescence microscopy analysis.

[6] = tested on: P-Tau S214, P-Tau T205, unphosphorylated tau, p62, LC3, β-amyloid (APP); test: Western blot of aggregate-forming proteins in cortex and hippocampus; type: in vivo; details: 5×FAD mice
From the text: The present inventors conducted a western blot analysis to investigate the expression of pathogenic aggregate-forming proteins in brain tissue, such as tau protein, p62, and LC3, other than β-amyloid from the results of Experimental examples 8-2 and 8-3 above.
Specifically, cortical and hippocampal tissues were obtained from experimental animals sacrificed after the behavioral experiments, and the tissues were lysed and subjected to Western blot analysis using antibodies that specifically bind to phosphorylated tau S214 (P-Tau S214), phosphorylated tau T205 (P-Tau T205), unphosphorylated tau, p62, LC3, and β-amyloid (APP), respectively.

CC(C)[C@@H](NC(=O)CNC(=O)[C@H](N)Cc1c[nH]cn1)C(=O)N[C@H](CO)C(=O)NCC(=O)N[C@H](Cc1c[nH]cn1)C(=O)NCC(=O)N[C@H](CCC(N)=O)C(=O)N[C@H](Cc1c[nH]cn1)C(=O)NCC(=O)N[C@@H](C(=O)N[C@H](Cc1c[nH]cn1)C(=O)NCC(=O)O)C(C)C [DAL1] (H-[dH]G[dV][dS]G[dH]G[dQ][dH]G[dV][dH]G-OH; N-terminus and C-terminus assumed)
stability in plasma over time [1]: remained stable over time without degradation

DALH1: variant alloferon peptide, SEQ ID NO: 8, HGvsGhGqhGvhG (capital L-type, lowercase D-type) (HG[dV][dS]G[dH]G[dQ][dH]G[dV][dH]G)
mutant huntingtin protein aggregate dissociating ability compared to DAL1 [2]: better protein aggregate dissociating ability

DALQ1: variant alloferon peptide, SEQ ID NO: 10, hGvsGhGQhGvhG (capital L-type, lowercase D-type) ([dH]G[dV][dS]G[dH]GQ[dH]G[dV][dH]G)
α-synuclein protein aggregate dissociating ability compared to DAL-1 [3]: better protein aggregate dissociating ability

DALS1: variant alloferon peptide, SEQ ID NO: 5, hGvSGhGqhGvhG (capital L-type, lowercase D-type) ([dH]G[dV]SG[dH]G[dQ][dH]G[dV][dH]G)
SOD1 protein aggregate dissociating ability compared to DAL1 [4]: better protein aggregate dissociating ability | autophagic scavenging activity compared to D-type alloferon peptide (DAL1) [5]: superior autophagic scavenging activity

DALV1: variant alloferon peptide, SEQ ID NO: 7, hGVsGhGqhGvhG (capital L-type, lowercase D-type) ([dH]GV[dS]G[dH]G[dQ][dH]G[dV][dH]G)
autophagic scavenging activity compared to D-type alloferon peptide (DAL1) [5]: superior autophagic scavenging activity

DALV2: variant alloferon peptide, SEQ ID NO: 4, hGvsGhGqhGVhG (capital L-type, lowercase D-type) ([dH]G[dV][dS]G[dH]G[dQ][dH]GV[dH]G)
α-synuclein protein aggregate dissociating ability compared to DAL-1 [3]: better protein aggregate dissociating ability | mutant huntingtin protein aggregate dissociating ability compared to DAL1 [2]: better protein aggregate dissociating ability | SOD1 protein aggregate dissociating ability compared to DAL1 [4]: better protein aggregate dissociating ability | autophagic scavenging activity compared to D-type alloferon peptide (DAL1) [5]: superior autophagic scavenging activity | amount of β-amyloid ([6]; Western blot of hippocampal sections): significantly reduced | expression of aggregate-forming proteins ([6]; cortex and hippocampus, 20 mg/kg IP, 25 weeks): significantly lower expression | protein aggregate dissociating ability compared to DAL1 ([6]; cortical Western blot analysis): better protein aggregate dissociating ability

DALVS: variant alloferon peptide, SEQ ID NO: 3, hGVSGhGqhGvhG (capital L-type, lowercase D-type) ([dH]GVSG[dH]G[dQ][dH]G[dV][dH]G)
autophagic scavenging activity compared to D-type alloferon peptide (DAL1) [5]: superior autophagic scavenging activity

DALVSQV
autophagic scavenging activity compared to D-type alloferon peptide (DAL1) [5]: superior autophagic scavenging activity

DALVS_V: variant alloferon peptide with glutamine removed, SEQ ID NO: 14, hGVSGhGhGVhG (capital L-type, lowercase D-type) ([dH]GVSG[dH]G[dH]GV[dH]G)
SOD1 protein aggregate dissociating ability compared to DAL1 [4]: better protein aggregate dissociating ability | autophagic scavenging activity compared to D-type alloferon peptide (DAL1) [5]: superior autophagic scavenging activity

HGVSGHGQHGVHG [LAL]
half-life ([1]; FIG. 1, isolated mouse plasma, read-out: half-life (T1/2)): 51.8 min | stability in plasma over time [1]: degraded early in plasma
